The values that follow are results of earlier work, collected in patent publication US20150366832A1, “CARBIDOPA/LEVODOPA GASTRORETENTIVE DRUG DELIVERY” (INTEC PHARMA LTD., priority 2008, published 2015).

As to `N[C@@H](Cc1ccc(O)c(O)c1)C(=O)O` [Levodopa], the half-life result (Carbidopa and Levodopa administered together) was “about 1.5 hours”. Further, the plasma half-life result (without Carbidopa) is “about 50 minutes”.
Turning to `C[C@@](Cc1ccc(O)c(O)c1)(NN)C(=O)O` [Carbidopa], for the setting “Carbidopa given with Levodopa”, the “reduction of the amount of Levodopa required to produce a given response” value is recorded as “about 75%”. For the same compound, the “crossing of the blood-brain barrier” value (human, in vivo) was “does not cross the blood-brain barrier”.
